Source: patent US20230235316A1, “MODEL FOR INSULIN RESISTANCE” (CHILDREN'S HOSPITAL MEDICAL CENTER, priority 2020, published 2023)
Entries after “also recorded” stand apart in the source; their conditions may differ.

Assays:
Type in all cases: cell-based, human
fatty liver HLO [1] = experiment: Drug screening in fatty liver HLO: inflammatory gene expression; conditions: HLO treated with fatty acids for 6 days; drug exposure 48 hours
Method: (§1) HLO were treated with fatty acids for 6 days to induce a fatty liver phenotype. Then, candidate drugs were exposed to the sHLO for 48 hours.

fatty liver HLO [2] = experiment: Drug screening in fatty liver HLO: fat accumulation; conditions: HLO treated with fatty acids for 6 days; drug exposure 48 hours
Method: as §1

HLO = experiment: Fatty acid induction of steatohepatitis phenotype in HLOs; conditions: 300 µM oleic acid for 72 hours
From the text: Fatty acid treatment induces a steatohepatitis phenotype in HLOs. […] DGAT½, which catalyzes the formation of triglycerides from diacylglycerol and acyl-CoA, was increased in sHLO relative to normal HLOs (FIG. 7D).

PCK1 reporter HLOs = experiment: PCK1 reporter (mScarlet fluorescence / luciferase) HLOs
From the text: To visualize and quantify HLO insulin responsiveness, iPSCs were genetically edited using the CRISPR/Cas9 system to insert a reporter construct comprising mScarlet (fluorescence) and luciferase (luminescence) genes downstream of the gluconeogenesis regulatory gene PCK1, at the 3′ end in exon 10 (FIG. 5A). FIG. 5A also depicts a schematic of the reporter function. […] When gluconeogenesis is suppressed by exposure to insulin, the expression of mScarlet and luciferase also decreases in correlation with the downregulation of PCK1. […] However, it is envisioned that other reporter constructs, such as those using alternative reporters, can be used. Furthermore, alternative insulin pathway regulatory genes are depicted in FIG. 3C to be used in lieu of PCK1.
Human iPSCs were gene edited to insert the fluorescence and luminescence reporter construct to the 3′ end of PCK1. […] These gene edited iPSCs were subsequently differentiated into HLOs. […] Subsequently, 100 ng/mL of insulin was applied for 3 hours, and fluorescence and luciferase activity were measured. […] FIGS. 6C-D depicts the detection of PCK1-luciferase luminescence as measured by in vitro imaging.
The effect of insulin concentration was tested. PCK1-luciferase HLOs were starved of insulin for 24 hours and then treated with 0 nM, 10 nM, 100 nM, or 1000 nM of insulin for 1 hour for luciferase imaging.
The effect of insulin treatment time was tested. Insulin starved HLOs were treated with 100 nM of insulin for 1, 2, or 3 hours (with no insulin control).

HLOs = experiment: qPCR of gluconeogenesis and lipogenesis regulator genes in insulin-treated HLOs; conditions: HLOs insulin-starved 24 hours, insulin 100 ng/mL for 8 hours
Method: (§2) Insulin responsiveness of HLOs was analyzed using Western blotting and qPCR. The prepared HLOs were cultured under insulin starvation for 24 hours and then exposed to insulin.
To analyze insulin responsiveness of gluconeogenesis and lipogenesis regulator genes in HLOs, they were treated with insulin at 100 ng/mL for 8 hours, and then RNA was extracted for qPCR. In the insulin-treated HLOs, gluconeogenesis regulatory gene expression (FOXO1, CREB1, TFE1, PCK1) was suppressed by insulin stimulation (FIG. 4B). Conversely, lipogenesis regulatory gene expression (SREBP, FASN, ACLY, ACC) was induced by insulin stimulation (FIG. 4C).

[3] = tested on: AKT phosphorylation in HLOs; experiment: AKT phosphorylation in HLOs after insulin (Western blot); conditions: HLOs insulin-starved 24 hours; insulin 0, 10 and 100 ng/mL for 20 minutes
Method: as §2
To analyze phosphorylation of AKT activated downstream of insulin signaling. HLOs were treated with insulin at 0 ng/mL, 10 ng/mL and 100 ng/mL for 20 minutes, and then proteins were extracted for Western blot.

sHLO = experiment: Insulin responsiveness in sHLO (Western blot, gene expression, PCK1, glucose production)
Method: Insulin responsiveness in the sHLO was examined. To detect insulin responsiveness, insulin starvation of sHLO and HLO controls was performed for 24 hours, followed by insulin stimulation.
Insulin signal analysis by Western blot was performed by treating with 100 nM insulin for 20 minutes. […] Insulin responsiveness of PCK1, CREB 1, and FOXO1 was not suppressed in sHLO (FIGS. 7J-K). […] Furthermore, glucose production was not inhibited after insulin stimulation in sHLO (FIG. 7L).

Compound: CN(C)C(=N)N=C(N)N [metformin]
- inflammatory gene expression (TNFa, NFKB1, NFKB2) / inflammatory response (fatty liver HLO [1]): limited improvement
- fat accumulation (fatty liver HLO [2]): improvement

Compound: CCCCCCCC/C=C\CCCCCCCC(=O)O [oleic acid]
- fat accumulation (HLO): induces fat accumulation

Compound: insulin
- PCK1-mScarlet fluorescence and luciferase activity (PCK1 reporter HLOs; 100 ng/mL insulin for 3 hours after treatment with cAMP): downregulation; also recorded: decreased
- luciferase activity of PCK1 (PCK1 reporter HLOs; HLOs insulin-starved 24 hours, 10 nM, 100 nM or 1000 nM insulin for 1 hour): decreased
- PCK1-luciferase activity (PCK1 reporter HLOs; cAMP-treated HLOs, 100 nM insulin for 3 hours): inhibited
- luciferase activity of PCK1 (PCK1 reporter HLOs; insulin-starved HLOs, 100 nM insulin for 1, 2 or 3 hours): reduced after 1 hour of treatment
- gluconeogenesis regulatory gene expression (FOXO1, CREB1, TFE1, PCK1) (HLOs): suppression; also recorded: suppressed
- lipogenesis regulatory gene expression (SREBP, FASN, ACLY, ACC) (HLOs): induction; also recorded: induced
- AKT phosphorylation [3]: induces AKT phosphorylation
- glucose production (sHLO; sHLO after insulin stimulation): not affected; also recorded: not inhibited
- insulin response of PCK1 and other gluconeogenesis genes (sHLO; sHLO insulin-starved 24 hours, then insulin stimulation): not responsive
- phosphorylation of AKT (sHLO; sHLO insulin-starved 24 hours, 100 nM insulin for 20 minutes, Western blot): inhibited in sHLO
